pIC50: −log10 of the molar value. Structures can show the parent of a compound that is named as a salt. Where two headings read alike, the source gives them in different places. Bounds are passed on as bounds.

Series [1] has as its target T1, BPLF1 1–246 (Epstein-Barr virus, UniProt P03186).
Series [2] addresses T1, BPLF1 1–246. Put plainly: biochemical.
Series [3] addresses T1, BPLF1 1–246. Put plainly: K63-linked ubiquitin chain cleavage assay. The following applies: 10 μM inhibitor, 25 nM BPLF1 1–246, 2 μg K63-linked chains, overnight 37 °C, SDS gel. The series is classed as biochemical, Epstein Barr Virus (EBV).
In the next series the test system is 293 EBV+ cells. Put plainly: Cell viability by trypan blue exclusion. The settings on record: 48 h, concentrations up to 10 μM.
In a further series the test system is EBV. Put plainly: EBV infectious virus production, titered on Raji cells. The settings on record: 293 EBV+ cells induced with BZLF1, 48 h, at the concentrations tested.
In the next series the target is T2, UCH-L5 (Homo sapiens, UniProt Q9Y5K5).
T2 sequence (Q9Y5K5 1-329): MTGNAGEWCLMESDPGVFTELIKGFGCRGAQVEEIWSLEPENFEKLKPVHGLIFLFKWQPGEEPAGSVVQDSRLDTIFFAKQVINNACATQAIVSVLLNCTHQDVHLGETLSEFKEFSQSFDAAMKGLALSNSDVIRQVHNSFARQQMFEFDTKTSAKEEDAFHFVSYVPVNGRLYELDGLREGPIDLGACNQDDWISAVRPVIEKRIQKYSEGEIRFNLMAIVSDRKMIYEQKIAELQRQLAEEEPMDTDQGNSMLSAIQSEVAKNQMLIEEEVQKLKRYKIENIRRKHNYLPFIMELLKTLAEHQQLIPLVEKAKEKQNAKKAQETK
Put plainly: Suramin selectivity, Ub-Rhodamine 110 assay. The series is classed as biochemical.

The target in series [4] is KSHV ORF64 1–205 N terminal fragment (Human herpesvirus 8 type P, UniProt Q2HR64). Put plainly: ORF64 DUB activity in Ub-Rhodamine 110 assay. The settings on record: 10 μM suramin, 30 minutes with Ub-Rhodamine 110.
Sequence of KSHV ORF64 1–205 N terminal fragment (Q2HR64 1-205): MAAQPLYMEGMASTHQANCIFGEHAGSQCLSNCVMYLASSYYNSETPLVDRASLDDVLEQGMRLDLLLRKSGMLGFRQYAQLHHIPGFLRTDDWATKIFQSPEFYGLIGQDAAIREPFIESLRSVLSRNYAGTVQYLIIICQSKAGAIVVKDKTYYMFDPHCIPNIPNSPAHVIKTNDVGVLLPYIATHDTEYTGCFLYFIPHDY
The next series deals with T3, Cezanne (Homo sapiens, UniProt Q6GQQ9).
T3 sequence (Q6GQQ9 1-843): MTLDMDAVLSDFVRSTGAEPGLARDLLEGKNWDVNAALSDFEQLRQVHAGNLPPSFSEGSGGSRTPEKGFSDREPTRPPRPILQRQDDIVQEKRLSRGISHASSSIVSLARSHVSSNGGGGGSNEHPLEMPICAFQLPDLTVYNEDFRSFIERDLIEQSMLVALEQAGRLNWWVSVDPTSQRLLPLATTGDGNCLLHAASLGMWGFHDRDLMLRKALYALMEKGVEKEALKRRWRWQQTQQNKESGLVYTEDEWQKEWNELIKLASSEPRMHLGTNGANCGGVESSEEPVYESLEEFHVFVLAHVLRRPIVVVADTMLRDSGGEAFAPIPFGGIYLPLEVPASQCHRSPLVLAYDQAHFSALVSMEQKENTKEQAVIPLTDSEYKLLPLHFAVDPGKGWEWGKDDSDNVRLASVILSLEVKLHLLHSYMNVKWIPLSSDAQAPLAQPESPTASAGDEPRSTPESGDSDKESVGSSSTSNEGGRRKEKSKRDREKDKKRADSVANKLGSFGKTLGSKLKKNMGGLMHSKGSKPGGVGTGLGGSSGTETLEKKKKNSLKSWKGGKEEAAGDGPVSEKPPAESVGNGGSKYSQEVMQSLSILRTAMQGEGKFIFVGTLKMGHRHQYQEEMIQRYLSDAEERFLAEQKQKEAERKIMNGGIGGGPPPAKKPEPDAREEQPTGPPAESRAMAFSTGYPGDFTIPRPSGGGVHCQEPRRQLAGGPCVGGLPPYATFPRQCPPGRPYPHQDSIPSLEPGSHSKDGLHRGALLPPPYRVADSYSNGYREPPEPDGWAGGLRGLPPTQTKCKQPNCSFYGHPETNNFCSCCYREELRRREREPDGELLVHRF
Put plainly: Suramin selectivity, Ub-Rhodamine 110 assay. The series is classed as biochemical.

The target in a further series is T4, USP8c (Homo sapiens, UniProt P40818).
T4 sequence (P40818 777-1109 limits assumed): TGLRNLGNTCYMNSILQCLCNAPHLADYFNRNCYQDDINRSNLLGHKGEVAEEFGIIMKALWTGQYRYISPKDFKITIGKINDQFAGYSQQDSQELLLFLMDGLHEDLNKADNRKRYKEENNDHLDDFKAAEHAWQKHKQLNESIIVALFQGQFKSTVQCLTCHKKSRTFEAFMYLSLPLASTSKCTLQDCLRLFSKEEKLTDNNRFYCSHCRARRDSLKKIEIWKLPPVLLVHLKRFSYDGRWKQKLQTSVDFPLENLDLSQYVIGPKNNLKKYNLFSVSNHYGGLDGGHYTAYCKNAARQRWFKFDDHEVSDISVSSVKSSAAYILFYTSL
Put plainly: Suramin selectivity, Ub-Rhodamine 110 assay. The format is biochemical.

The next series deals with T5, Atax3L (Homo sapiens, UniProt Q9H3M9).
T5 sequence (Q9H3M9 1-355): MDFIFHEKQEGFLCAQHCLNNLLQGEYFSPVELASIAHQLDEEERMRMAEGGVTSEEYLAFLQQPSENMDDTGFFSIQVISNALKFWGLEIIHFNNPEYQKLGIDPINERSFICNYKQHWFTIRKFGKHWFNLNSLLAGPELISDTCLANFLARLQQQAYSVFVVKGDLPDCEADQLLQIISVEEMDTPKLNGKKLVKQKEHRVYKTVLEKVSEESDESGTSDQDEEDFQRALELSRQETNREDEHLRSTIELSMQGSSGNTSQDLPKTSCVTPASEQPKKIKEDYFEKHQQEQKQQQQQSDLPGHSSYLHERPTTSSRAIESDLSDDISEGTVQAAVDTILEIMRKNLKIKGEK
Put plainly: Suramin selectivity, Ub-Rhodamine 110 assay. The series is classed as biochemical.

The target in the next series is PLPro (Severe acute respiratory syndrome coronavirus, UniProt P0C6X7). Put plainly: biochemical.
Series [5] has as its target T1, BPLF1 1–246. Put plainly: Suramin selectivity, Ub-Rhodamine 110 assay. The format is biochemical, Epstein Barr Virus (EBV).
In another series the test system is KSHV. The following applies: suramin up to 10 μM; for KSHV genome copy number: qPCR of supernatant of reactivated cells.
In the next series the target is Bap1 (Homo sapiens, UniProt Q92560). Put plainly: Suramin selectivity, Ub-Rhodamine 110 assay. The format is biochemical.
Sequence of Bap1 (Q92560 whole entry): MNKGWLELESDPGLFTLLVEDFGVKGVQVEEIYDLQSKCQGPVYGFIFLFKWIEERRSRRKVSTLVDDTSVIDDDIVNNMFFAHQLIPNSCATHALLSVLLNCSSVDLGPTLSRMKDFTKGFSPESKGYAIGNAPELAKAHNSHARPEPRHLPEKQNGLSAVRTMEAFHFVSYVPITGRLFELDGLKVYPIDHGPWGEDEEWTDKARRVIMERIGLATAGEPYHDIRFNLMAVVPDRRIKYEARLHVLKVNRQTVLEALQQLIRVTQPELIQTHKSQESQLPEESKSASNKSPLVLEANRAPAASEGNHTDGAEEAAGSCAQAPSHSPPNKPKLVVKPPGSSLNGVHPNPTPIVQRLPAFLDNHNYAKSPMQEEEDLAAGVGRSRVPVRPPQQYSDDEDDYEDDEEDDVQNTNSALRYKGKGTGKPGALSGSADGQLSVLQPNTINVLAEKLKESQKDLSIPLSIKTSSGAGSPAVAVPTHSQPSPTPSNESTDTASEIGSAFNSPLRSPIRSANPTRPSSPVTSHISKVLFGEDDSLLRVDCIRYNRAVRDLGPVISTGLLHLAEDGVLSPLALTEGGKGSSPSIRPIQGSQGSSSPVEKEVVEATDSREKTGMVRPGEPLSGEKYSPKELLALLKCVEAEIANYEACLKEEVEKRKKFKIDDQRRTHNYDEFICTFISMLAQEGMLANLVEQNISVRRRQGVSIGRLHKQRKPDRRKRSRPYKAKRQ
Series [6] relates to pool of cellular DUBs (293T cell lysate). Put plainly: Cellular DUB activity in 293T total cell lysate, Ub-Rhodamine 110. The series is classed as biochemical. The following applies: 10 μM suramin, 293T lysate.
The next series deals with T6, UCH-L1 (Homo sapiens, UniProt P09936).
T6 sequence (P09936 1-223): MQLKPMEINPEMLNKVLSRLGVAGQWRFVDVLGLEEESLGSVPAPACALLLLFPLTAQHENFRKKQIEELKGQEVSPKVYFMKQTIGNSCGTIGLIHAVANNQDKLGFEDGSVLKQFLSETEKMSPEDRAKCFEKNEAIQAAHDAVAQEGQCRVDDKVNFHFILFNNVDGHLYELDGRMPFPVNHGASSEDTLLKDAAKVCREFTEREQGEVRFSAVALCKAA
Put plainly: Suramin selectivity, Ub-Rhodamine 110 assay. The series is classed as biochemical.

In a further series the target is T7, JosD2 (Homo sapiens, UniProt Q8TAC2).
T7 sequence (Q8TAC2 1-188): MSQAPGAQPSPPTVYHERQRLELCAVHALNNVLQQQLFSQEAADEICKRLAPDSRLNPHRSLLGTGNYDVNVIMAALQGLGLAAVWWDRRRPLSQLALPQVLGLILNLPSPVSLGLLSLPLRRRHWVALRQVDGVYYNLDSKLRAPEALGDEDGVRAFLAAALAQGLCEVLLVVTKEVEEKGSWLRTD
Put plainly: Suramin selectivity, Ub-Rhodamine 110 assay. The format is biochemical.

T1 sequence (P03186 1-246): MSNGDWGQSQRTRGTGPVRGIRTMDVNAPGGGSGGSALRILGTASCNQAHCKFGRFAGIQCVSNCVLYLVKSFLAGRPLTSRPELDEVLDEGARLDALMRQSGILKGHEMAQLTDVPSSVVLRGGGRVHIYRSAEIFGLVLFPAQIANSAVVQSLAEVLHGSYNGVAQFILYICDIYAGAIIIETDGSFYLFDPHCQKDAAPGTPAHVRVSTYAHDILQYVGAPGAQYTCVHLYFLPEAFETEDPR

A word on the pIC50: it is the IC50 on a negative log10 scale, so that one unit is a factor of ten. Higher therefore signals a low IC50. Compound `NC(Cc1cc(O)c(O)cc1O)C(=O)O` (racemic) [6-Hyd roxy-DL-DOPA] had a pIC50 at BPLF1 1–246 [1] of less than 5.00.
On BPLF1 1–246 [2], `O=C(O)C1=CC(=C(c2ccc(O)c(C(=O)O)c2)c2ccc(O)c(C(=O)O)c2)C=CC1=O` [Aurintricarboxylic acid] showed a negative-log IC50 (pIC50) of 5.48.
Take `OC[C@H]1O[C@H]([S-])[C@H](O)[C@@H](O)[C@@H]1O.[Au+]` [Aurothioglucose]: at BPLF1 1–246 [3], the “inhibition of K63-linked ubiquitin chain cleavage” value is on record as “inhibited K63-linked chain cleavage”. Also, at BPLF1 1–246 [1], the pIC50 is 5.60. Moreover, the “cell growth or viability” value in the series with 293 EBV+ cells is “not inhibit cell growth or viability”. Further, in the series with EBV, the “infectious virus production (in words)” value is recorded as “did not result in decreased virus production”.
In the case of `Cc1cc2c(C(C)C)c(O)c(O)c(C=O)c2c(O)c1-c1c(C)cc2c(C(C)C)c(O)c(O)c(C=O)c2c1O` [Gossypol], the negative-log IC50 (pIC50) against BPLF1 1–246 [2] was 5.52.
On BPLF1 1–246 [1], `CN(N=O)c1ccc(O)c(O)c1` [Me-3,4-dephostatin] showed a pIC50 of less than 5.00.
Still for that read-out and setting: under `O=C(Nc1cccc(C(=O)Nc2ccc(S(=O)(=O)O)c3cc(S(=O)(=O)O)cc(S(=O)(=O)O)c23)c1)Nc1cccc(C(=O)Nc2ccc(S(=O)(=O)O)c3cc(S(=O)(=O)O)cc(S(=O)(=O)O)c23)c1` [NF 023] stands 5.21.
As for `O=C1C(SCCO)=C(SCCO)C(=O)c2ccccc21` [NSC 95397], at BPLF1 1–246 [3], the “inhibition of K63-linked ubiquitin chain cleavage” value is “inhibited K63-linked chain cleavage”. This compound had a pIC50 against BPLF1 1–246 [1] of 5.32.
On BPLF1 1–246 [1], `Cc1nc(N=Nc2cc(S(=O)(=O)O)c3cc([N+](=O)[O-])cc(S(=O)(=O)O)c3c2)c(COP(=O)(O)O)c(C=O)c1O` [PPNDS tetrasodium] had a pIC50 of less than 5.00.
On the same count and under the same terms, under `C[C@]12C=CC(=O)C=C1CC[C@@H]1C2=CC[C@]2(C)[C@@H](C(=O)CN3CCN(c4cc(N5CCCC5)nc(N5CCCC5)n4)CC3)CC[C@@H]12` [U-74389G maleate] stands 5.47.
`CC1(C)CCC2=C(O1)c1ccccc1C(=O)C2=O` [beta-lapachone]: the “inhibition of K63-linked ubiquitin chain cleavage” value against BPLF1 1–246 [3] is on record as “inhibited K63-linked chain cleavage”. For the same compound, on BPLF1 1–246 [2], the pIC50 is 5.60.
`Cc1ccc(C(=O)Nc2ccc(S(=O)(=O)O)c3cc(S(=O)(=O)O)cc(S(=O)(=O)O)c23)cc1NC(=O)c1cccc(NC(=O)Nc2cccc(C(=O)Nc3cc(C(=O)Nc4ccc(S(=O)(=O)O)c5cc(S(=O)(=O)O)cc(S(=O)(=O)O)c45)ccc3C)c2)c1` [suramin, Suramin sodium salt]: at BPLF1 1–246 [3], the “inhibition of K63-linked ubiquitin chain cleavage” value was “inhibited K63-linked chain cleavage”. In addition, the pIC50 is 5.82 against UCH-L5; 5.80 against Cezanne; 5.52 at USP8c; 5.59 at Atax3L; 5.49 against PLPro; 5.48 against BPLF1 1–246 [5]. Also, the negative logarithm of the IC50 (pIC50) against Bap1 was 5.47; at BPLF1 1–246 [2] it was 6.01; on UCH-L1, 5.44; against JosD2, 4.55. For the same compound, the “decrease in ORF64 DUB activity” value in series [4] was more than 80%. Further, the “KSHV reactivation from latency” value with KSHV (% reactivation of latently infected cells) is on record as “no significant effect”. Also, the entries for the “KSHV genome copy number” value in the series on KSHV and in the series on KSHV (listed as Suramin) were “no significant effect” and “does not inhibit genome copy production”, respectively. The “KSHV infectious virus production” value in the series with KSHV (supernatants 72 h post dox, infection of naïve 293 cells) is recorded as “no significant effect”. Also, in series [6], the “inhibition of the pool of cellular DUBs” value is “about 50%”.
Regarding Ub-aldehyde, the “inhibition of BPLF1 1–246 DUB activity” value at BPLF1 1–246 [1] (5 μM Ub-aldehyde (low signal control)) is recorded as “approximately 95%”.

These data come from paper PMC7017600 (Antiviral research, 2019).
